Test system: MCF-7 cells
Test: MCF-7 Estrogen Dependent Proliferation Assay
Type: cell-based
Details: Homo sapiens, MCF7, addition to Estrogen Depleted Media (EDM), read-out: EC50 of stimulation of growth of MCF-7 cells
Excerpt: MCF-7 cells (ATCC #HTB-22) are human mammary gland adenocarcinoma cells that require estrogen for growth. The growth media (GM) for the MCF-7 cells is Minimum Essential Media (without phenol red) supplemented with fetal bovine serum(FBS) to 10%. The FBS serves as the sole source of estrogen and this GM supports the full growth of the cells and is used for the routine growth of the cell cultures. When MCF-7 cells are placed in a media in which 10% Charcoal-Dextran treated fetal bovine serum (CD-FBS) is substituted for FBS, the cells will cease to divide but will remain viable. […] The addition of estradiol to EDM stimulates the growth of the MCF-7 cells in a dose dependent manner with an EC50 of 2 pM. Growing MCF-7 cells are washed several times with EDM and the cultures then maintained in EDM for a minimum of 6 days in order to deplete the cells of endogenous estrogen. […] At this point, the culture supernatants are aspirated, the cells washed 2×with PBS, the wash solution aspirated and the protein content of each well determined. Each drug dilution is evaluated on a minimum of 5 wells and the range of dilution of the test compounds in the assay is […] to 1000 nM. […] The assay is terminated at day 8-10 when the appropriate controls reach 80-90% confluency and the protein content of each well is determined as above.

## C[C@]12CC[C@@H]3c4ccc(O)cc4CC[C@H]3[C@@H]1CC[C@@H]2O [estradiol]
  EC50: 2 pM
